# System: IGROV1 complex spheroids (HUVEC, MSC), viability % test/control
# Assay: Anticancer human tumor IGROV1 cell line growth inhibition [GQUAD];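 also: spheroids exposed to compounds for 7 days before readout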;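 as to viability, T/C: 100% = DMSO vehicle control viability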
# Details: for IC50: curve of first compound; for viability, T/C: stronger effect = lower value
# How it was run: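 Tumor cells were grown as complex spheroids with HUVEC endothelial cells and mesenchymal stem cells as stroma. G-quadruplex stabilizers were combined with targeted agents over half-log dilutions from near the clinical Cmax, or from 10 microM.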
# [1] = second compound 0.0316 µM, first compound 0.0316 µM
# [2] = second compound 0.0316 µM, first compound 0.1 µM
# [3] = second compound 0.0316 µM, first compound 0.316 µM
# [4] = second compound 0.0316 µM, first compound 1 µM
# [5] = second compound 0.0316 µM, first compound 3.16 µM
# [6] = second compound 0.0316 µM, first compound 10 µM
# [7] = second compound 0.1 µM, first compound 0.0316 µM
# [8] = second compound 0.1 µM, first compound 0.1 µM
# [9] = second compound 0.1 µM, first compound 0.316 µM
# [10] = second compound 0.1 µM, first compound 1 µM
# [11] = second compound 0.1 µM, first compound 3.16 µM
# [12] = second compound 0.1 µM, first compound 10 µM
# [13] = second compound 0.316 µM, first compound 0.0316 µM
# [14] = second compound 0.316 µM, first compound 0.1 µM
# [15] = second compound 0.316 µM, first compound 0.316 µM
# [16] = second compound 0.316 µM, first compound 1 µM
# [17] = second compound 0.316 µM, first compound 3.16 µM
# [18] = second compound 0.316 µM, first compound 10 µM
# [19] = second compound 1 µM, first compound 0.0316 µM
# [20] = second compound 1 µM, first compound 0.1 µM
# [21] = second compound 1 µM, first compound 0.316 µM
# [22] = second compound 1 µM, first compound 1 µM
# [23] = second compound 1 µM, first compound 3.16 µM
# [24] = second compound 1 µM, first compound 10 µM
# [25] = second compound 3.16 µM, first compound 0.0316 µM
# [26] = second compound 3.16 µM, first compound 0.1 µM
# [27] = second compound 3.16 µM, first compound 0.316 µM
# [28] = second compound 3.16 µM, first compound 1 µM
# [29] = second compound 3.16 µM, first compound 3.16 µM
# [30] = second compound 3.16 µM, first compound 10 µM
# [31] = second compound 10 µM, first compound 0.0316 µM
# [32] = second compound 10 µM, first compound 0.1 µM
# [33] = second compound 10 µM, first compound 0.316 µM
# [34] = second compound 10 µM, first compound 1 µM
# [35] = second compound 10 µM, first compound 3.16 µM
# [36] = second compound 10 µM, first compound 10 µM
smiles,measurement,setting,value
COc1cccc2c1C(=O)c1c(O)c3c(c(O)c1C2=O)CC(O)(C(=O)CO)CC3OC1CC(N)C(O)C(C)O1 (stereo unspecified) + CN(C)c1ccc(Nc2c3ccc(NC(=O)CCN4CCCC4)cc3nc3cc(NC(=O)CCN4CCCC4)ccc23)cc1,IC50,second compound 0.0316 µM,49.4 nM
same,IC50,second compound 0.1 µM,49 nM
same,IC50,second compound 0.316 µM,39.9 nM
same,IC50,second compound 1 µM,32.4 nM
same,IC50,second compound 3.16 µM,41.3 nM
same,IC50,second compound 10 µM,< 31.6 nM
same,"viability, T/C",[1],67.7%
same,"viability, T/C",[2],21.5%
same,"viability, T/C",[3],9.86%
same,"viability, T/C",[4],3.36%
same,"viability, T/C",[5],0.13%
same,"viability, T/C",[6],1.04%
same,"viability, T/C",[7],67.9%
same,"viability, T/C",[8],20.4%
same,"viability, T/C",[9],9.01%
same,"viability, T/C",[10],3.31%
same,"viability, T/C",[11],0.07%
same,"viability, T/C",[12],1.06%
same,"viability, T/C",[13],57.2%
same,"viability, T/C",[14],21.7%
same,"viability, T/C",[15],9.64%
same,"viability, T/C",[16],3.48%
same,"viability, T/C",[17],0.07%
same,"viability, T/C",[18],1.01%
same,"viability, T/C",[19],50.5%
same,"viability, T/C",[20],25.7%
same,"viability, T/C",[21],7.36%
same,"viability, T/C",[22],2.77%
same,"viability, T/C",[23],0.08%
same,"viability, T/C",[24],0.98%
same,"viability, T/C",[25],59.6%
same,"viability, T/C",[26],18.7%
same,"viability, T/C",[27],8.4%
same,"viability, T/C",[28],3.44%
same,"viability, T/C",[29],0.13%
same,"viability, T/C",[30],0.94%
same,"viability, T/C",[31],33.5%
same,"viability, T/C",[32],15.6%
same,"viability, T/C",[33],5.82%
same,"viability, T/C",[34],3.29%
same,"viability, T/C",[35],0.17%
same,"viability, T/C",[36],1.15%
Cc1cccc(N(C)C(=O)C2C(O)CCN2c2nc(C)cc(C(F)(F)F)c2C#N)c1 (stereo unspecified) + CN(C)c1ccc(Nc2c3ccc(NC(=O)CCN4CCCC4)cc3nc3cc(NC(=O)CCN4CCCC4)ccc23)cc1,IC50,second compound 0.0316 µM,> 10000 nM
same,IC50,second compound 0.1 µM,> 10000 nM
same,IC50,second compound 0.316 µM,> 10000 nM
same,IC50,second compound 1 µM,> 10000 nM
same,IC50,second compound 3.16 µM,5480 nM
same,IC50,second compound 10 µM,< 31.6 nM
same,"viability, T/C",[1],101%
same,"viability, T/C",[2],75.8%
same,"viability, T/C",[3],85.2%
same,"viability, T/C",[4],77.5%
same,"viability, T/C",[5],92.5%
same,"viability, T/C",[6],97.1%
same,"viability, T/C",[7],93.9%
same,"viability, T/C",[8],83.2%
same,"viability, T/C",[9],86.9%
same,"viability, T/C",[10],79.9%
same,"viability, T/C",[11],95.5%
same,"viability, T/C",[12],93.1%
same,"viability, T/C",[13],99.1%
same,"viability, T/C",[14],79.5%
same,"viability, T/C",[15],88.5%
same,"viability, T/C",[16],70.6%
same,"viability, T/C",[17],88.9%
same,"viability, T/C",[18],96.2%
same,"viability, T/C",[19],86.2%
same,"viability, T/C",[20],90.6%
same,"viability, T/C",[21],71%
same,"viability, T/C",[22],84.5%
same,"viability, T/C",[23],89.3%
same,"viability, T/C",[24],84.7%
same,"viability, T/C",[25],83.1%
same,"viability, T/C",[26],85.2%
same,"viability, T/C",[27],82.2%
same,"viability, T/C",[28],64%
same,"viability, T/C",[29],71%
same,"viability, T/C",[30],33.9%
same,"viability, T/C",[31],43.5%
same,"viability, T/C",[32],50.3%
same,"viability, T/C",[33],34.3%
same,"viability, T/C",[34],35%
same,"viability, T/C",[35],25.7%
same,"viability, T/C",[36],11.7%
Cn1ncnc1[C@H]1c2n[nH]c(=O)c3cc(F)cc(c23)N[C@@H]1c1ccc(F)cc1 + CN(C)c1ccc(Nc2c3ccc(NC(=O)CCN4CCCC4)cc3nc3cc(NC(=O)CCN4CCCC4)ccc23)cc1,IC50,second compound 0.0316 µM,89.6 nM
same,IC50,second compound 0.1 µM,42.8 nM
same,IC50,second compound 0.316 µM,127 nM
same,IC50,second compound 1 µM,93.4 nM
same,IC50,second compound 3.16 µM,56.5 nM
same,IC50,second compound 10 µM,< 0.999 nM
same,"viability, T/C","second compound 0.0316 µM, first compound 0.000999 µM",99.9%
same,"viability, T/C","second compound 0.0316 µM, first compound 0.00316 µM",88.4%
same,"viability, T/C","second compound 0.0316 µM, first compound 0.00999 µM",95.1%
same,"viability, T/C",[1],57%
same,"viability, T/C","second compound 0.0316 µM, first compound 0.0999 µM",58.4%
same,"viability, T/C",[3],40.1%
same,"viability, T/C","second compound 0.1 µM, first compound 0.000999 µM",101%
same,"viability, T/C","second compound 0.1 µM, first compound 0.00316 µM",82.3%
same,"viability, T/C","second compound 0.1 µM, first compound 0.00999 µM",68.2%
same,"viability, T/C",[7],46.2%
same,"viability, T/C","second compound 0.1 µM, first compound 0.0999 µM",49.7%
same,"viability, T/C",[9],35.9%
same,"viability, T/C","second compound 0.316 µM, first compound 0.000999 µM",95.7%
same,"viability, T/C","second compound 0.316 µM, first compound 0.00316 µM",77.7%
same,"viability, T/C","second compound 0.316 µM, first compound 0.00999 µM",81.3%
same,"viability, T/C",[13],52.2%
same,"viability, T/C","second compound 0.316 µM, first compound 0.0999 µM",61.5%
same,"viability, T/C",[15],38.4%
same,"viability, T/C","second compound 1 µM, first compound 0.000999 µM",90.6%
same,"viability, T/C","second compound 1 µM, first compound 0.00316 µM",79%
same,"viability, T/C","second compound 1 µM, first compound 0.00999 µM",64.9%
same,"viability, T/C",[19],65.4%
same,"viability, T/C","second compound 1 µM, first compound 0.0999 µM",57%
same,"viability, T/C",[21],28.8%
same,"viability, T/C","second compound 3.16 µM, first compound 0.000999 µM",86.2%
same,"viability, T/C","second compound 3.16 µM, first compound 0.00316 µM",79.4%
same,"viability, T/C","second compound 3.16 µM, first compound 0.00999 µM",70.6%
same,"viability, T/C",[25],58.1%
same,"viability, T/C","second compound 3.16 µM, first compound 0.0999 µM",42.1%
same,"viability, T/C",[27],29.6%
same,"viability, T/C","second compound 10 µM, first compound 0.000999 µM",47.8%
same,"viability, T/C","second compound 10 µM, first compound 0.00316 µM",40.2%
same,"viability, T/C","second compound 10 µM, first compound 0.00999 µM",35.8%
same,"viability, T/C",[31],35.1%
same,"viability, T/C","second compound 10 µM, first compound 0.0999 µM",26.9%
same,"viability, T/C",[33],19.2%

# — PubChem BioAssay AID2060486 (Molecular Pharmacology Branch, DTP, NCI, 2025)
